Patent US5723496A, “Method for prevention and treatment of harmful effects of intracellular acidosis” (priority 1995, dated 1998)
Entries after “also recorded” stand apart in the source; their conditions may differ. Counter-ions that a name gives are not always drawn.

How the values were obtained:
[1] = design: species or system Adult Swiss mice; details: mouse, in vivo
Method: (§1) Adult Swiss mice (BK-1 male 20 g) purchased from Bantin & Kingman, Fremont, Calif., were used. Each batch consisted of 15 mice. Within each batch, five mice were selected randomly to be in the GES, taurine, or control group. A taurine group was included to serve as additional control.
Arterial blood gas sample was collected by puncture of the lower portion of the descending aorta under pentobarbital anesthesia. Analysis was performed on a Corning 168 Blood Gas Analyzer.

[2] = design: species or system gerbil; details: in vivo
Method: Adult male gerbils (ca. 70 g) were divided into three groups of 5 gerbils each. Control group received saline and experimental group received GES. Taurine group served as an additional control. […] The saline group received 0.25 ml of saline injections.
After two weeks, animals were sacrificed by exsanguination under pentobarbital anesthesia. Brains were removed and fixed in liquid nitrogen. The frozen brains were pulverized in a liquid nitrogen cooled mortar and pestle, and mixed with 4 volumes of 0.5N powdered frozen perchloric acid. The powder mixture was centrifuged in liquid nitrogen cooled centrifuge tubes at 16,000 rpm at -4° C. for 30 minutes. The supernatant was removed and titrated to a pH of 9.0-9.5 by the addition of potassium bicarbonate. The solution was stored in an ice bath for 15 minutes and the potassium perchlorate precipitate was removed by centrifugation at 16,000 rpm at -4° C.
Aliquots (0.5 ml) of the extracts obtained above were placed on a dual bed ion exchange column containing 6×0.5 cm Dowex AG1 anion exchange resin (chloride form) layered over 6×0.5 cm Dowex AG50 cation exchange resin (hydrogen form). Water (3 ml) then added to the column. The eluent, guanidinoethyl sulfonate, was free from other naturally occurring guanidino compounds, such as arginine. […] After 18 min., absorbance was read at 545 nm using a Gilford Spectrophotometer to determine brain GES level.

[3] = tested on: adult mice exposed to anoxia; test: survival of adult mice exposed to anoxia; assay type: in vivo, Adult Swiss mice; design: mortality, 2.5 minutes of anoxia / protection against 2.5 minutes anoxia: concentration or dose not given beside the values; details: for protection against anoxia / survival (in words): sulfate
Method: Adult Swiss mice (BK-1 males, 20 g) purchased from Bantin & Kingman, Fremont, Calif. were used. Each batch consisted of 10 mice. Within each batch five mice were selected randomly as experimental animals and the remaining five as controls. Experimental mice received daily intraperitoneal injections of 0.25 ml of GES (50 mg/ml) for 14 days.
At day 14, all mice within the same batch (5 experimental and 5 each of the […]) were placed in a specially designed chamber (26.5×24.5×21.0 cm). Anoxia/hypoxia was produced by infusion of pure nitrogen gas ([…]) into the chamber for 2.5 or 2.75 minutes. Anoxia/hypoxia was reversed immediately after these intervals by removing the chamber and placing the mice in a room air environment.
The results are shown in FIG. 1 and discussed in detail above.

[4] = tested on: taurine transport into the brain; details: sulfate; cited from earlier work
mouse brain = mouse brain intracellular pH pre- and post-anoxia (Example 7, 31P NMR); assay type: in vivo, Adult Swiss mice; details: FIG. 12, sulfate
Method: as §1
A GE Omega CSI-7T (clear bore 120 mm, horizontal, 7T) was used. Mice were anesthetized with pentobarbital, 50 mg/kg, intraperitoneally. Mice were held in a padded holder which was placed in the probe chamber containing a one turn round surface coil (5 mm diameter) tunable to the resonance frequency of proton and ^31 P. To avoid signal contamination, the scalp and temporal muscle were retracted. The animal body temperature was kept at 37° C. using a non-magnetic heating pad. Field homogeneity was maximized by skimming on tissue water proton signals. ^31 P spectra were obtained using a one pulse sequence at 121.67 MHz with a spectral width of 10K and stored into 4K memory blocks (recycle time 1.2 sec). Every 100 transients (2 minutes) were blocked. In order to obtain higher accuracy, preanoxia steady state pH was determined using block average files of three blocks (300 transients, 6 minutes). Anoxia was then introduced by infusion of 100% N2 into the chamber (14 L/min). The first blocks (100 transients, 2 minutes) immediately after N2 introduction were utilized for post anoxia pH measurement. […]

pKa determination = assay type: physicochemical; details: read-out: pKa value (guanidino/amidino moiety)
Method: The mixture was heated to 60° C. and maintained at this temperature until evolution of gas ceased. The solution was cooled on ice until crystals were formed. Following the filtration, the crystals were dissolved in a minimum of distilled water and were recrystallized three times from water. Purity of GES was confirmed by proton NMR spectroscopy at 500 MHz (GE Omega-500). The pKa value of the amino moiety of GES was determined to be 12.48
GES was prepared as described above. Taurine and methyl isothiopseudourea were purchased from Sigma (St. Louis, Mo.). […] The mixture was heated to 60° C. and maintained at this temperature until evolution of gas ceased. The solution was cooled on ice to crystalize GES, and filtered. The crystals were dissolved in a minimal amount of distilled water and then recrystallized three times from water. The purity of GES was confirmed by proton NMR spectroscopy at 500 MHz (GE Omega-500). The pKa value of the amidino moiety of GES was determined to be 12.48.

[5] = tested on: post-ischemia hyperactivity; test: motor activity (distance traveled) before and after ischemia; assay type: in vivo, gerbil
Method: Ischemia was induced as described above. Motor activity was analyzed using a PC driven automatic behavior analyzer as follows. Animals were placed individually in automated motor activity chambers (Omnitech Digiscan, Columbus, Ohio). A horizontally aligned array of […] infrared beams on each side of the chamber (39×39×39 cm high), located 2.5 cm above the floor and 2.5 cm apart, detected animals movements. […] Animals were studied prior to and 1, 2, 3, 7 day after induction of ischemia. Motor activity was monitored for 6 hours between 11:00 pm and 5:00 am.

SMILES: N=C(N)NCCS(=O)(=O)O [GES, guanidinoethane sulfate]
- arterial blood gas parameters including pH (in words) [1]: remained essentially unchanged
- arterial pCO2 [1]: 41.0 ± 5.49 mmHg
- arterial pH [1]: 7.29 ± 0.03
- arterial pO2 [1]: 98.0 ± 5.8 mmHg
- brain GES level relative to saline group [2]: about 7 times
- mortality, 2.5 minutes of anoxia ([3]; 14 days i.p. pretreatment): zero
- mortality, 2.75 minutes of anoxia ([3]; 14 days i.p. pretreatment): 20%
- protection against 2.5 minutes anoxia ([3]; FIG. 1): 100%
- protection against anoxia / survival (in words) ([3]; listed as sodium guanidinoethane sulfate): effectively prevent lactic acidosis caused by complete oxygen deficiency
- protection against anoxia / survival (in words) [3]: more effective than pretreatment with taurine or saline; also recorded: enhance the survival rate of mice exposed to anoxia; also recorded: significantly enhances the survival rate of adult mice exposed to anoxia
- effect on taurine transport into the brain (in words) [4]: competitive inhibitor of taurine transport into the brain; also recorded: effectively competes with and inhibits taurine transport into the brain
- brain intracellular pH, pre-anoxia (in words) (mouse brain; 625 mg/kg i.p., two weeks, 625 mg/kg): detectable shift in intracellular pH, to a more alkaline level; also recorded: clear alkali shift; also recorded: significantly increased brain intracellular pH (alkaline shift)
- brain intracellular pH, post-anoxia (in words) (mouse brain): alkali shift is maintained following 12 minutes of post anoxia; also recorded: remained higher, retaining the degree of alkaline shift
- pKa (pKa determination): 12.5
- travelling distance before ischemia ([5]; GES-treated gerbils): approximately 150 m/hours
- travelling distance of ischemia control vs GES ischemia group ([5]; first day after ischemia): more than 2.5 times
- post-ischemia hyperactivity (in words) ([5]; in vivo, sulfate): did not experienced such hyperactivity periods; also recorded: significantly suppressed; also recorded: able to suppress post-ischemic hyperactivity to close to normal levels
